# According to patent EP0073715A1, “Brominated compounds for use in opacifying products” (Société dite: GUERBET S.A., priority 1981, dated 1983):
# Assay: Protein binding (Brodersen technique)
# Conditions: weaker interaction means better tolerance, read-out: Liaison protéique (converted)
# Text: Plus cette interaction est faible et meilleure est la tolérance.
smiles,measurement,value
O=C(CCCCC(=O)Nc1c(I)cc(I)c(C(=O)O)c1I)Nc1c(I)cc(I)c(C(=O)O)c1I [Adipiodone de méthylglucamine],Kd,78.1 µM
